Experimental findings from patent US11021467B2, “Phosphatidylinositol 3-kinase inhibitors” (Gilead Sciences, Inc., priority 2014, dated 2021) are described below.

Holding throughout (experiment): TR-FRET enzymatic activity assay against PI3K isoforms
Holding throughout (type): biochemical

In one experiment the target is PI3Kβ (Homo sapiens (Human), UniProt P42338). Conditions: PI3Kβ, TR-FRET, 2×Km ATP, 30 minutes at 25° C. The text has this: (§1) The compounds of formula (I) were characterized for their enzymatic activity against the PI3K isoforms. […] TR-FRET monitored the formation of 3,4,5-inositol triphosphate molecule that competed with fluorescently labeled PIP3 for binding to the GRP-1 pleckstrin homology domain protein.
Sequence of PI3Kβ (P42338 whole entry, the tested form may be a part, canonical isoform): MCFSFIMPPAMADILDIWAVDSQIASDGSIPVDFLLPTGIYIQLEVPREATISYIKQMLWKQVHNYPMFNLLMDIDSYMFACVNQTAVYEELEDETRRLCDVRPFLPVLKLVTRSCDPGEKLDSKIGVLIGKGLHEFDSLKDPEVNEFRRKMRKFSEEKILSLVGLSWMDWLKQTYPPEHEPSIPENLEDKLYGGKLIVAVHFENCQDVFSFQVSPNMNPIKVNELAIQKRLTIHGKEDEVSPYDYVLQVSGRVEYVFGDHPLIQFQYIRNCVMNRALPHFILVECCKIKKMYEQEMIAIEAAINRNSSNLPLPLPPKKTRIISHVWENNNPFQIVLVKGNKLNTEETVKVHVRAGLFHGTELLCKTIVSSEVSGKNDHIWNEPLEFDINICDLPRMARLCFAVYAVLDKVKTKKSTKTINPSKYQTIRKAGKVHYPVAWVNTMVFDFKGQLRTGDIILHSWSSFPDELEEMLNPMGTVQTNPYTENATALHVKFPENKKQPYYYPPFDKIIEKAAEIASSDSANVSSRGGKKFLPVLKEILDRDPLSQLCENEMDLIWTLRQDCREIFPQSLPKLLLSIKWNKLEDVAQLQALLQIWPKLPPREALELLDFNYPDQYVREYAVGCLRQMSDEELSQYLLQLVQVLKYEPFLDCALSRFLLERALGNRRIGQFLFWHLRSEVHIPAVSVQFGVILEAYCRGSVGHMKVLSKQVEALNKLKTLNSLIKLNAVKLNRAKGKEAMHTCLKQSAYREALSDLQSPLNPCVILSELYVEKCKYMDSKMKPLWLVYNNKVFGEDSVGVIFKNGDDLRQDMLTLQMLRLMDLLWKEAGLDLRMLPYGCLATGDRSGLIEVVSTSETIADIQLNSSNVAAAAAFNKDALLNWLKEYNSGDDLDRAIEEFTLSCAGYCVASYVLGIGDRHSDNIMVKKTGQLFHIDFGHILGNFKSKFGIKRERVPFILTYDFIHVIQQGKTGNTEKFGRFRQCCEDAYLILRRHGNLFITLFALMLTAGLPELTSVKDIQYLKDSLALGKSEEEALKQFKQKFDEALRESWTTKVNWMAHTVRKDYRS
Sequence of PI3Kβ (P27986 whole entry partner, the tested form may be a part, canonical isoform): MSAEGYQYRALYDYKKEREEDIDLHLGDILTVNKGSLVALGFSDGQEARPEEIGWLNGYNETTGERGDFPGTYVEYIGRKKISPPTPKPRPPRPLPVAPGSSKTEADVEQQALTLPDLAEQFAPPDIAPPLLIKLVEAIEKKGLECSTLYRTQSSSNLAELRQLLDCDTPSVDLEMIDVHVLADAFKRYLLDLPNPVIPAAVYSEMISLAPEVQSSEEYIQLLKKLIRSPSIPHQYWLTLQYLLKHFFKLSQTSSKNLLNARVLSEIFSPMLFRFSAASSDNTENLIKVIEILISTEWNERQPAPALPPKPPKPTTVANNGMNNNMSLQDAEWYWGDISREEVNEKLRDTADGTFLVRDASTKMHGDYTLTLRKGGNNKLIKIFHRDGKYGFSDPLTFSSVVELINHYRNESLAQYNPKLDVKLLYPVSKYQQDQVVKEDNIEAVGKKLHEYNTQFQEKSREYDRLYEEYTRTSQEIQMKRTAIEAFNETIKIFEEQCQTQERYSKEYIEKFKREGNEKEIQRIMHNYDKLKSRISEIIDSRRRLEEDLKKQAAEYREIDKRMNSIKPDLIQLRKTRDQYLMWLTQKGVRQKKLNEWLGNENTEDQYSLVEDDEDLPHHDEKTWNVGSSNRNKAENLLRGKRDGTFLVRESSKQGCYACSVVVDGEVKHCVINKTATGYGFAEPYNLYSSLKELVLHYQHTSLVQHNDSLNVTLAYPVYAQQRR

The next experiment has as its target PI3Kγ (Homo sapiens (Human), UniProt P48736). The conditions noted are these: 2×Km ATP, 30 minutes at 25° C.
Description: as §1

The target in another experiment is PI3Kδ (Homo sapiens (Human), UniProt O00329). Conditions: 2×Km ATP, 30 minutes at 25° C.
Sequence of PI3Kδ (O00329 whole entry): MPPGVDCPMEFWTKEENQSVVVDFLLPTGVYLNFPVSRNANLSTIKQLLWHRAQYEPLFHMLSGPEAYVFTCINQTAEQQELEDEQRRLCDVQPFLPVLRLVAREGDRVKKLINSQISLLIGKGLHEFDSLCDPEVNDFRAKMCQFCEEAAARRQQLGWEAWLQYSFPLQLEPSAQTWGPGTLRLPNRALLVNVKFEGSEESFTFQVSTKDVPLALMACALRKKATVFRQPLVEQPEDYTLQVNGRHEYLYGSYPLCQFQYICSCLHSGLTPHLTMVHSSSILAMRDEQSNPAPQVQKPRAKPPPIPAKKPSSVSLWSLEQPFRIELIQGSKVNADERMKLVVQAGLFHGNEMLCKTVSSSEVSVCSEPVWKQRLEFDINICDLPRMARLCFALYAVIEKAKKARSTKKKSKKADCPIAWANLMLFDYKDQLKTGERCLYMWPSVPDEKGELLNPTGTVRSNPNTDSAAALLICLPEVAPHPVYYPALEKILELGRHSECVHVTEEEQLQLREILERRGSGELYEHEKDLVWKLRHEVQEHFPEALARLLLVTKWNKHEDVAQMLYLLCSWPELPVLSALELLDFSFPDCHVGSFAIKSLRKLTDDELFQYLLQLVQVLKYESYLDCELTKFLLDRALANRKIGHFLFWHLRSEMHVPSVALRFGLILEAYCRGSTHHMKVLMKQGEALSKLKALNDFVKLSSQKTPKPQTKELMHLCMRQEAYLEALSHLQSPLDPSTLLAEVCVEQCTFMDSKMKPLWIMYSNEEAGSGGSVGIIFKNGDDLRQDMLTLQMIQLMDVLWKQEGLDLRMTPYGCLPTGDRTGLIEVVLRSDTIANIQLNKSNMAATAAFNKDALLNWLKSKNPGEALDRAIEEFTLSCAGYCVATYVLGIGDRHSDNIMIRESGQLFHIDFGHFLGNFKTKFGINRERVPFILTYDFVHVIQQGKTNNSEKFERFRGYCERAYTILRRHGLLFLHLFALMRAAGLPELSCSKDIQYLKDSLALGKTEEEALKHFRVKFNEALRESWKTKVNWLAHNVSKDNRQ
Sequence of PI3Kδ (P27986 whole entry partner): as the sequence (P27986 whole entry partner, the tested form may be a part, canonical isoform) above
Description: as §1

Sequence of PI3Kγ (P48736 whole entry): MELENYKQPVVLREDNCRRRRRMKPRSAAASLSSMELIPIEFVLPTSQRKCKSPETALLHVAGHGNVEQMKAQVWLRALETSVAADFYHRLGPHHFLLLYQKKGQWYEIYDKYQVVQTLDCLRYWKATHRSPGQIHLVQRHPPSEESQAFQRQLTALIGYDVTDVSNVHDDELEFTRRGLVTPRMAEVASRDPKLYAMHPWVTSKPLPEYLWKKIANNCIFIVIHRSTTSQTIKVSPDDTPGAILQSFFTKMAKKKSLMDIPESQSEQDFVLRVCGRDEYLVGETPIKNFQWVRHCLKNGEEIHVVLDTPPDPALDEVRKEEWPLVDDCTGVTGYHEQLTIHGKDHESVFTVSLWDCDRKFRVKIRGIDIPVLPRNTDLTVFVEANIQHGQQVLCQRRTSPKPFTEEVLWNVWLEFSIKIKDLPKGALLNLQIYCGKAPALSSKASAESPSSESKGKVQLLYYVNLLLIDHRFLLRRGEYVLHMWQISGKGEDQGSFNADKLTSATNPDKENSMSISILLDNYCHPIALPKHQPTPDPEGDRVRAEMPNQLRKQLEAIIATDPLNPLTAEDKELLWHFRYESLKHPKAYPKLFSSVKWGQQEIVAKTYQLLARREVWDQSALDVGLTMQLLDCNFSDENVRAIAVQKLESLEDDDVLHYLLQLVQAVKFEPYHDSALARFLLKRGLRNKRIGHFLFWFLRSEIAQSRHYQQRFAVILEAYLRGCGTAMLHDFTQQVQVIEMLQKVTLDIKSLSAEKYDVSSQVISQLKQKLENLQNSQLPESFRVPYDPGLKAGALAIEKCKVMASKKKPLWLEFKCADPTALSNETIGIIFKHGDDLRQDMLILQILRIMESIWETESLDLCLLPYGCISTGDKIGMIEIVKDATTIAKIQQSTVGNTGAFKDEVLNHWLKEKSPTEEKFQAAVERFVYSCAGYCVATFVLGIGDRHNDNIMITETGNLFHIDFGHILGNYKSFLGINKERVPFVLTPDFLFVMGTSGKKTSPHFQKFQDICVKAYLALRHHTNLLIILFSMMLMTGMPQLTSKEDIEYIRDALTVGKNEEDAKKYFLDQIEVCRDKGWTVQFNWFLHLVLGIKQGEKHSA

For the compound `C[C@H](Nc1ncnc(N)c1C#N)c1nc2cccc(Cl)c2c(=O)n1CCCN` [Compound 73, (S)-4-amino-6-((1-(3-(3-aminopropyl)-5-chloro-4-oxo-3,4-dihydroquinazolin-2-yl)ethyl)amino)pyrimidine-5-carbonitrile], the values for the IC50 against PI3Kβ, on PI3Kγ and against PI3Kδ were 21 nM, 9400 nM and 6 nM, respectively.

As for `CC(C)NCC(O)CCn1c([C@H](C)Nc2nc(N)nc(N)c2C#N)nc2cccc(Cl)c2c1=O` (stereo partly drawn) [Compound 74, 2,4-diamino-6-(((1S)-1-(5-chloro-3-(3-hydroxy-4-(isopropylamino)butyl)-4-oxo-3,4-dihydroquinazolin-2-yl)ethyl)amino)pyrimidine-5-carbonitrile], the IC50 against PI3Kβ was found to be 17 nM; against PI3Kγ, 1620 nM; against PI3Kδ it was 1 nM.

For the compound `C[C@H](Nc1nc(N)nc(N)c1C#N)c1nc2cccc(Cl)c2c(=O)n1CCC(O)CNC(C)(C)C` (stereo partly drawn) [Compound 75, 2,4-diamino-6-(((1S)-1-(3-(4-(tert-butylamino)-3-hydroxybutyl)-5-chloro-4-oxo-3,4-dihydroquinazolin-2-yl)ethyl)amino)pyrimidine-5-carbonitrile], the IC50 against PI3Kβ came out at 19 nM; on PI3Kγ, 2300 nM; against PI3Kδ, 1 nM.

Take `C[C@H](Nc1nc(N)nc(N)c1C#N)c1nc2cccc(Cl)c2c(=O)n1Cc1cc[nH]n1` [Compound 76, (S)-4-((1-(3-((1H-pyrazol-3-yl)methyl)-5-chloro-4-oxo-3,4-dihydroquinazolin-2-yl)ethyl)amino)-2,6-diaminopyrimidine-5-carbonitrile]: the IC50 was found to be 46 nM against PI3Kβ, 160 nM at PI3Kγ and 2 nM at PI3Kδ.

As to `C[C@H](Nc1ncnc(N)c1C#N)c1nc2cccc(Cl)c2c(=O)n1Cc1cc[nH]n1` [Compound 77, (S)-4-((1-(3-((1H-pyrazol-3-yl)methyl)-5-chloro-4-oxo-3,4-dihydroquinazolin-2-yl)ethyl)amino)-6-aminopyrimidine-5-carbonitrile], the IC50 is 860 nM against PI3Kβ, 7000 nM at PI3Kγ and 33 nM on PI3Kδ.

Regarding `C[C@H](Nc1ncnn2ccnc12)c1nc2cccc(Cl)c2c(=O)n1Cc1cc[nH]n1` [Compound 78, (S)-3-((1H-pyrazol-3-yl)methyl)-5-chloro-2-(1-(imidazo[2,1-f][1,2,4]triazin-4-ylamino)ethyl)quinazolin-4(3H)-one], the figures for the IC50 against PI3Kβ, on PI3Kγ and against PI3Kδ were 920 nM, 3000 nM and 49 nM, respectively.

In the case of `C[C@H](Nc1nc(N)nc(N)c1C#N)c1nc2cccc(Cl)c2c(=O)n1Cc1cn[nH]c1` [Compound 79, (S)-4-((1-(3-((1H-pyrazol-4-yl)methyl)-5-chloro-4-oxo-3,4-dihydroquinazolin-2-yl)ethyl)amino)-2,6-diaminopyrimidine-5-carbonitrile], the IC50 worked out at 40 nM at PI3Kβ, 380 nM on PI3Kγ and 2 nM on PI3Kδ.

Take `C[C@H](Nc1nc(N)nc(N)c1C#N)c1nc2cccc(Cl)c2c(=O)n1Cc1ncc[nH]1` [Compound 80, (S)-4-((1-(3-((1H-imidazol-2-yl)methyl)-5-chloro-4-oxo-3,4-dihydroquinazolin-2-yl)ethyl)amino)-2,6-diaminopyrimidine-5-carbonitrile]: the IC50 against PI3Kβ amounted to 1100 nM; at PI3Kγ, 2400 nM; against PI3Kδ, 27 nM.

Take `C[C@H](Nc1nc(N)nc(N)c1C#N)c1nc2cccc(Cl)c2c(=O)n1Cc1nc[nH]n1` [Compound 81, (S)-4-((1-(3-((1H-1,2,4-triazol-3-yl)methyl)-5-chloro-4-oxo-3,4-dihydroquinazolin-2-yl)ethyl)amino)-2,6-diaminopyrimidine-5-carbonitrile]: the figures for the IC50 on PI3Kβ, against PI3Kγ and on PI3Kδ were 47 nM, 320 nM and 5 nM, respectively.

Take `C[C@H](Nc1ncnc(N)c1C#N)c1nc2cccc(Cl)c2c(=O)n1[C@H]1C[C@@H](O)C1` [Compound 82, 4-amino-6-(((S)-1-(5-chloro-3-((1S,3R)-3-hydroxycyclobutyl)-4-oxo-3,4-dihydroquinazolin-2-yl)ethyl)amino)pyrimidine-5-carbonitrile]: the half-inhibitory concentration (IC50) against PI3Kβ turned out to be 150 nM; on PI3Kγ, 2300 nM; at PI3Kδ it was 5 nM.

As to `C[C@H](Nc1ncnc(N)c1C#N)c1nc2cccc(Cl)c2c(=O)n1CCCO` [Compound 83, (S)-4-amino-6-((1-(5-chloro-3-(3-hydroxypropyl)-4-oxo-3,4-dihydroquinazolin-2-yl)ethyl)amino)pyrimidine-5-carbonitrile], the figures for the IC50 at PI3Kβ, on PI3Kγ and against PI3Kδ were 180 nM, 2900 nM and 6 nM, respectively.

Consider `CC(CCO)n1c([C@H](C)Nc2ncnc(N)c2C#N)nc2cccc(Cl)c2c1=O` (stereo partly drawn) [Compound 84, 4-amino-6-(((1S)-1-(5-chloro-3-(4-hydroxybutan-2-yl)-4-oxo-3,4-dihydroquinazolin-2-yl)ethyl)amino)pyrimidine-5-carbonitrile], for which the IC50 against PI3Kβ is 260 nM; on PI3Kγ, 2900 nM; against PI3Kδ, 4 nM.

Regarding `C[C@H](Nc1ncnc(N)c1C#N)c1nc2cccc(Cl)c2c(=O)n1[C@H]1CC[C@H](O)CC1` [Compound 85, (S)-4-amino-6-((1-(5-chloro-3-(4-hydroxycyclohexyl)-4-oxo-3,4-dihydroquinazolin-2-yl)ethyl)amino)pyrimidine-5-carbonitrile], the IC50 against PI3Kβ came to 92 nM; on PI3Kγ, 1200 nM; on PI3Kδ, 3 nM.

For the compound `C[C@H](Nc1ncnc(N)c1C#N)c1nc2cccc(Cl)c2c(=O)n1[C@H]1C[C@H](N)C1` [Compound 86, (S)-4-amino-6-((1-(3-(3-aminocyclobutyl)-5-chloro-4-oxo-3,4-dihydroquinazolin-2-yl)ethyl)amino)pyrimidine-5-carbonitrile], the half-maximal inhibitory concentration (IC50) on PI3Kβ was 620 nM; at PI3Kγ it was no less than 10000 nM; at PI3Kδ, 24 nM.

Consider `C[C@H](Nc1ncnc(N)c1C#N)c1nc2cccc(Cl)c2c(=O)n1CC1CCNCC1` [Compound 87, (S)-4-amino-6-((1-(5-chloro-4-oxo-3-(piperidin-4-ylmethyl)-3,4-dihydroquinazolin-2-yl)ethyl)amino)pyrimidine-5-carbonitrile], for which the IC50 was 150 nM on PI3Kβ, no less than 10000 nM against PI3Kγ and 4 nM at PI3Kδ.

In the case of `C[C@H](Nc1ncnc(N)c1C#N)c1nc2cccc(Cl)c2c(=O)n1CC1CNCCO1` (stereo partly drawn) [Compound 88, 4-amino-6-(((1S)-1-(5-chloro-3-(morpholin-2-ylmethyl)-4-oxo-3,4-dihydroquinazolin-2-yl)ethyl)amino)pyrimidine-5-carbonitrile], the values for the IC50 against PI3Kβ, against PI3Kγ and on PI3Kδ were 250 nM, no less than 10000 nM and 42 nM, respectively.

For `C[C@H](Nc1ncnc(N)c1C#N)c1nc2cccc(Cl)c2c(=O)n1CC1CCNC1` (stereo partly drawn) [Compound 89, 4-amino-6-(((1S)-1-(5-chloro-4-oxo-3-(pyrrolidin-3-ylmethyl)-3,4-dihydroquinazolin-2-yl)ethyl)amino)pyrimidine-5-carbonitrile], the IC50 against PI3Kβ was 54 nM; against PI3Kγ it was no less than 10000 nM; against PI3Kδ, 3 nM.

As to `C[C@H](Nc1ncnc(N)c1C#N)c1nc2cccc(Cl)c2c(=O)n1CC1CCCN1` (stereo partly drawn) [Compound 90, 4-amino-6-(((1S)-1-(5-chloro-4-oxo-3-(pyrrolidin-2-ylmethyl)-3,4-dihydroquinazolin-2-yl)ethyl)amino)pyrimidine-5-carbonitrile], the values for the IC50 against PI3Kβ, against PI3Kγ and on PI3Kδ were 2800 nM, no less than 10000 nM and 37 nM, respectively.

`C[C@H](Nc1ncnc(N)c1C#N)c1nc2cccc(Cl)c2c(=O)n1CC1CCCCN1` (stereo partly drawn) [Compound 91, 4-amino-6-(((1S)-1-(5-chloro-4-oxo-3-(piperidin-2-ylmethyl)-3,4-dihydroquinazolin-2-yl)ethyl)amino)pyrimidine-5-carbonitrile]: the results for the IC50 against PI3Kβ, on PI3Kγ and against PI3Kδ were 1700 nM, no less than 10000 nM and 95 nM, respectively.

As for `C[C@H](Nc1ncnc(N)c1C#N)c1nc2cccc(Cl)c2c(=O)n1CC1CCCNC1` (stereo partly drawn) [Compound 92, 4-amino-6-(((1S)-1-(5-chloro-4-oxo-3-(piperidin-3-ylmethyl)-3,4-dihydroquinazolin-2-yl)ethyl)amino)pyrimidine-5-carbonitrile], the IC50 is 320 nM at PI3Kβ, no less than 10000 nM against PI3Kγ and 7 nM on PI3Kδ.

Turning to `C[C@H](Nc1nc(N)nc(N)c1C#N)c1nc2cccc(Cl)c2c(=O)n1[C@H]1C[C@@H](O)C1` [Compound 93, 2,4-diamino-6-(((S)-1-(5-chloro-3-((cis)-3-hydroxycyclobutyl)-4-oxo-3,4-dihydroquinazolin-2-yl)ethyl)amino)pyrimidine-5-carbonitrile], the 50% inhibitory concentration (IC50) is 4 nM against PI3Kβ, 158 nM on PI3Kγ and 1 nM at PI3Kδ.

In the case of `C[C@H](Nc1nc(N)nc(N)c1Cl)c1nc2cccc(Cl)c2c(=O)n1[C@H]1C[C@@H](O)C1` [Compound 94, 5-chloro-2-((S)-1-((2,6-diamino-5-chloropyrimidin-4-yl)amino)ethyl)-3-((cis)-3-hydroxycyclobutyl)quinazolin-4(3H)-one], the concentration for half-maximal inhibition (IC50) came to 190 nM at PI3Kβ, 1590 nM against PI3Kγ and 14 nM against PI3Kδ.

`Nc1nc(N)c(Cl)c(N[C@H](c2nc3c(Cl)ccc(Cl)c3c(=O)n2[C@H]2C[C@@H](O)C2)C2CC2)n1` [Compound 95, 5,8-dichloro-2-((S)-cyclopropyl((2,6-diamino-5-chloropyrimidin-4-yl)amino)methyl)-3-((cis)-3-hydroxycyclobutyl)quinazolin-4(3H)-one]: the IC50 is 720 nM against PI3Kβ, no less than 10000 nM against PI3Kγ and 16 nM against PI3Kδ.
